This passage reports IC50 results from paper PMC5641089, “WX-132-18B, a novel microtubule inhibitor, exhibits promising anti-tumor effects” (Oncotarget, 2017).

For assay [1], the system named is T1, tubulin.
T1 construct: tubulin prepared from fresh dog brain tissue; with alpha/beta-tubulin heterodimer
The experiment in a line: competition with BODIPY FL-vinblastine (fluorescence). In kind it is binding, Canis lupus familiaris.

Assay [2] has as its system T1, tubulin. The experiment in a line: competitive colchicine-tubulin fluorescence assay; limited trypsin proteolysis. In kind it is binding, Canis lupus familiaris.

For orientation: IC50 means the point on the concentration scale where inhibition reaches its midpoint. Read a low IC50 as greater potency. In assay [1], `CC[C@]1(O)C[C@H]2CN(CCc3c([nH]c4ccccc34)[C@@](C(=O)OC)(c3cc4c(cc3OC)N(C=O)[C@H]3[C@@](O)(C(=O)OC)[C@H](OC(C)=O)[C@]5(CC)C=CCN6CC[C@]43[C@@H]65)C2)C1` [vincristine] had an IC50 of 6.97 ± 1.61 µM.

In assay [2], `COc1ccc2c(c1)NC(=O)CN2c1nc(C)nc2ccccc12` [WX-132-18B] showed a half-maximal inhibitory concentration (IC50) of 0.47 ± 0.1 µM.
